Measurements from US20260167620A1, “MULTIFUNCTIONAL COMPOUND CAPABLE OF DEGRADING BTK KINASE, AND COMPOSITION AND USE” (HANGZHOU HEALZEN THERAPEUTICS CO., LTD., priority 2021, published 2026).

The compounds below were run against T1, BTK (Homo sapiens, UniProt Q06187) (assay: BTK degradation activity test in Mino cells (Westernblot or Elisa)). Conditions: 24-72 h incubation.
T1 construct: endogenous in cells; host or cells: Mino cells
Format: cell-based
Protocol: The Mino cell line cells are 0.5˜1 million/well in 6-well plates. The compounds are diluted to different concentrations, added to the plate, and after 24-72 h of incubation, the cells are collected. After the cells were lysed, the total protein concentration in each well was determined with a BCA kit. The amount of BTK is determined using the Westernblot or Elisa method.

T1 sequence (Q06187 whole entry): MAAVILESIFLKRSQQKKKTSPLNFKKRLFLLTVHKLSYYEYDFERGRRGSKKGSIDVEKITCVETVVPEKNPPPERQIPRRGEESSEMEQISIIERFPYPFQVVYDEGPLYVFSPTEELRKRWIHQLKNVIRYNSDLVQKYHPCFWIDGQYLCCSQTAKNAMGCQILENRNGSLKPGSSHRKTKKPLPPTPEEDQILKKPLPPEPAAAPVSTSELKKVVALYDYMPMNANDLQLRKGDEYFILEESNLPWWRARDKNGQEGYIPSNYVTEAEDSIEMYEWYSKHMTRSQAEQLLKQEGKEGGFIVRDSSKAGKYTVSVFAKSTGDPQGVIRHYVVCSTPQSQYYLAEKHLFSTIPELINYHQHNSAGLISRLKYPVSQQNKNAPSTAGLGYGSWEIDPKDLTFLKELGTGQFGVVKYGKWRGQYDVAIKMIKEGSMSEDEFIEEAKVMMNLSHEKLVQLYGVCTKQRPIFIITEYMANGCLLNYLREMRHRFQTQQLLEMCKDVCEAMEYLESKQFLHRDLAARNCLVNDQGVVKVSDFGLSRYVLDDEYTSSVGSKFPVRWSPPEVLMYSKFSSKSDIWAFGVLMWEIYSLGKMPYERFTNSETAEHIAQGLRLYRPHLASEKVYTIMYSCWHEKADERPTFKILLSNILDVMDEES

Row | SMILES | DC50 [µM]
1 | NC(=O)c1nnc(N2CCCCC2)nc1Nc1ccc(N2CCN(C(=O)C3CN(c4ccc5c(c4)C(=O)N(C4CCC(=O)NC4=O)C5=O)C3)CC2)cc1 (stereo not drawn) [Compound 061, 5-((4-(4-(1-(2-(2,6-dioxopiperidin-3-yl)-1,3-dioxoisoindolin-5-yl)azetidine-3-carbonyl)piperazin-1-yl)phenyl)amino)-3-(piperidin-1-yl)-1,2,4-triazine-6-carboxamide] | < 0.01
2 | CC(C)(C)C(=O)OCN1C(=O)CCN(c2ccc(N3CCN(CC4CCN(c5ccc(Nc6nc(N7CCCCC7)nnc6C(N)=O)cc5F)CC4)CC3)cc2)C1=O [Compound 066, (3-(4-(4-((1-(4-((6-carbamoyl-3-(piperidin-1-yl)-1,2,4-triazin-5-yl)amino)-2-fluorophenyl)piperidin-4-yl)methyl)piperazin-1-yl)phenyl)-2,6-dioxotetrahydropyrimidin-1(2H)-yl) methyl pivalate] | < 0.01
3 | NC(=O)c1nnc(N2CCCCC2)nc1Nc1ccc(N2CCN(CC3CCN(c4ccc(N5CCC(=O)NC5=O)cc4)CC3)CC2)c(F)c1 [Compound 080, 5-((4-(4-((1-(4-(2,4-dioxotetrahydropyrimidin-1(2H)-yl)phenyl)piperidin-4-yl)methyl)piperazin-1-yl)-3-fluorophenyl)amino)-3-(piperidin-1-yl)-1,2,4-triazine-6-carboxamide] | < 0.01
4 | CC(=O)N[C@@H]1CCCN(c2nnc(C(N)=O)c(Nc3ccc(N4CCN(CC5CCN(c6ccc(-c7ccc(=O)[nH]n7)cc6C(F)(F)F)CC5)CC4)c(F)c3)n2)C1 [Compound 095, (R)-3-(3-acetamidopiperidin-1-yl)-5-((3-fluoro-4-(4-((1-(4-(6-oxo-1,6-dihydropyridazin-3-yl)-2-(trifluoromethyl)phenyl)piperidin-4-yl)methyl)piperazin-1-yl)phenyl)amino)-1,2,4-triazine-6-carboxamide] | < 0.01
5 | NC(=O)c1nnc(-c2ncc[nH]2)nc1Nc1ccc(C2CCN(CC3CCN(c4ccc5c(c4)C(=O)N(C4CCC(=O)NC4=O)C5=O)C3)CC2)cc1 (stereo not drawn) [Compound 025, 5-((4-(1-((1-(2-(2,6-dioxopiperidin-3-yl)-1,3-dioxoisoindolin-5-yl)pyrrolidin-3-yl)methyl)piperidin-4-yl)phenyl)amino)-3-(1H-imidazol-2-yl)-1,2,4-triazine-6-carboxamide] | < 0.01
6 | NC(=O)c1nnc(N2CCCCC2)cc1Nc1ccc(C2CCN(CC3CCN(c4ccc5c(c4)C(=O)N(C4CCC(=O)NC4=O)C5=O)C3)CC2)cc1 (stereo not drawn) [Compound 040, 4-((4-(1-((1-(2-(2,6-dioxopiperidin-3-yl)-1,3-dioxoisoindolin-5-yl)pyrrolidin-3-yl)methyl)piperidin-4-yl)phenyl)amino)-6-(piperidin-1-yl) pyridazine-3-carboxamide] | < 0.01
7 | CC(OC(=O)C(C)(C)C)N1C(=O)CCC(N2C(=O)c3ccc(N4CCC(CN5CCC(c6ccc(Nc7nc(N8CCN(C)CC8)nnc7C(N)=O)cc6)CC5)C4)cc3C2=O)C1=O (stereo not drawn) [Compound 070, 1-(3-(5-(3-((4-(4-((6-carbamoyl-3-(4-methylpiperazin-1-yl)-1,2,4-triazin-5-yl)amino)phenyl)piperidin-1-yl)methyl)pyrrolidin-1-yl)-1,3-dioxoisoindolin-2-yl)-2,6-dioxopiperidin-1-yl) ethyl pivalate] | < 0.01
8 | NC(=O)c1cnc(N2CCCCC2)nc1Nc1ccc(N2CCN(CC3CCN(c4ccc5c(c4)C(=O)N(C4CCC(=O)NC4=O)C5=O)C3)CC2)c(F)c1 (stereo not drawn) [Compound 034, 4-((4-(4-((1-(2-(2,6-dioxopiperidin-3-yl)-1,3-dioxoisoindolin-5-yl)pyrrolidin-3-yl)methyl)piperazin-1-yl)-3-fluorophenyl)amino)-2-(piperidin-1-yl) pyrimidine-5-carboxamide] | < 0.01
9 | NC(=O)c1cnc(N[C@H]2CCCC[C@H]2N)nc1Nc1ccc(C2CCN(CC3CCN(c4ccc5c(c4)C(=O)N(C4CCC(=O)NC4=O)C5=O)C3)CC2)cc1 (stereo partly drawn) [Compound 032, 2-(((1S,2R)-2-aminocyclohexyl)amino)-4-((4-(1-((1-(2-(2,6-dioxopiperidin-3-yl)-1,3-dioxoisoindolin-5-yl)pyrrolidin-3-yl)methyl)piperidin-4-yl)phenyl)amino) pyrimidine-5-carboxamide] | < 0.01
10 | CN1CCN(c2nnc(C(N)=O)c(Nc3ccc(C4CCN(CC5CCN(c6ccc7c(c6)C(=O)N(C6CCC(=O)NC6=O)C7=O)C5)CC4)cc3)n2)CC1 (stereo not drawn) [Compound 018, 5-((4-(1-((1-(2-(2,6-dioxopiperidin-3-yl)-1,3-dioxoisoindolin-5-yl)pyrrolidin-3-yl)methyl)piperidin-4-yl)phenyl)amino)-3-(4-methylpiperazin-1-yl)-1,2,4-triazine-6-carboxamide] | < 0.01
11 | Cc1nc(C(N)=O)c(Nc2ccc(C3CCN(CC4CCN(c5ccc6c(c5)C(=O)N(C5CCC(=O)NC5=O)C6=O)C4)CC3)cc2)nc1N1CCCCC1 (stereo not drawn) [Compound 039, 3-((4-(1-((1-(2-(2,6-dioxopiperidin-3-yl)-1,3-dioxoisoindolin-5-yl)pyrrolidin-3-yl)methyl)piperidin-4-yl)phenyl)amino)-6-methyl-5-(piperidin-1-yl) pyrazine-2-carboxamide] | < 0.01
12 | CC(=O)N[C@@H]1CCCN(c2nnc(C(N)=O)c(Nc3ccc(N4CCN(CC5CCN(c6ccc(C(=O)NC7CCC(=O)NC7=O)c(F)c6)CC5)CC4)c(F)c3)n2)C1 (stereo partly drawn) [Compound 093, 3-((R)-3-acetamidopiperidin-1-yl)-5-((4-(4-((1-(4-((2,6-dioxopiperidin-3-yl)carbamoyl)-3-fluorophenyl)piperidin-4-yl)methyl)piperazin-1-yl)-3-fluorophenyl)amino)-1,2,4-triazine-6-carboxamide] | < 0.01
13 | CN1CCN(c2nnc(C(N)=O)c(Nc3ccc(C4CCN(CC5CCN(c6ccc7c(c6)C(=O)N(C6CCC(=O)N(COC(=O)C(C)(C)C)C6=O)C7=O)C5)CC4)cc3)n2)CC1 (stereo not drawn) [Compound 063, (3-(5-(3-((4-(4-((6-carbamoyl-3-(4-methylpiperazin-1-yl)-1,2,4-triazin-5-yl)amino)phenyl)piperidin-1-yl)methyl)pyrrolidin-1-yl)-1,3-dioxoisoindolin-2-yl)-2,6-dioxopiperidin-1-yl) methyl pivalate] | < 0.01
14 | CC(OC(=O)C(C)(C)C)N1C(=O)CCN(c2ccc(N3CCN(CC4CCN(c5ccc(Nc6nc(N7CCCCC7)nnc6C(N)=O)cc5F)CC4)CC3)cc2)C1=O (stereo not drawn) [Compound 072, 1-(3-(4-(4-((1-(4-((6-carbamoyl-3-(piperidin-1-yl)-1,2,4-triazin-5-yl)amino)-2-fluorophenyl)piperidin-4-yl)methyl)piperazin-1-yl)phenyl)-2,6-dioxotetrahydropyrimidin-1(2H)-yl) ethyl pivalate] | < 0.01
15 | NC(=O)c1nnc(N2CCCCC2)nc1Nc1ccc(N2CCN(C(=O)C3CCN(c4ccc5c(c4)C(=O)N(C4CCC(=O)NC4=O)C5=O)CC3)CC2)cc1 (stereo not drawn) [Compound 058, 5-((4-(4-(1-(2-(2,6-dioxopiperidin-3-yl)-1,3-dioxoisoindolin-5-yl)piperidine-4-carbonyl)piperazin-1-yl)phenyl)amino)-3-(piperidin-1-yl)-1,2,4-triazine-6-carboxamide] | < 0.01
16 | CC[C@H](Nc1nnc(C(N)=O)c(Nc2ccc(C3CCN(CC4CCN(c5ccc6c(c5)C(=O)N(C5CCC(=O)NC5=O)C6=O)C4)CC3)cc2)n1)C(N)=O (stereo partly drawn) [Compound 017, 3-(((S)-1-amino-1-oxobutan-2-yl)amino)-5-((4-(1-((1-(2-(2,6-dioxopiperidin-3-yl)-1,3-dioxoisoindolin-5-yl)pyrrolidin-3-yl)methyl)piperidin-4-yl)phenyl)amino)-1,2,4-triazine-6-carboxamide] | < 0.01
17 | NC(=O)c1nnc(N2CCCCC2)nc1Nc1ccc(N2CC(CN3CCN(c4ccc5c(c4)C(=O)N(C4CCC(=O)NC4=O)C5=O)CC3)C2)cc1 (stereo not drawn) [Compound 049, 5-((4-(3-((4-(2-(2,6-dioxopiperidin-3-yl)-1,3-dioxoisoindolin-5-yl)piperazin-1-yl)methyl)azetidin-1-yl)phenyl)amino)-3-(piperidin-1-yl)-1,2,4-triazine-6-carboxamide] | < 0.01
18 | CC(=O)N[C@@H]1CCCN(c2nnc(C(N)=O)c(Nc3ccc(N4CCN(CC5CCN(c6ccc(NC7CCC(=O)NC7=O)nc6)CC5)CC4)c(F)c3)n2)C1 (stereo partly drawn) [Compound 096, 3-((R)-3-acetamidopiperidin-1-yl)-5-((4-(4-((1-(6-((2,6-dioxopiperidin-3-yl)amino)pyridin-3-yl)piperidin-4-yl)methyl)piperazin-1-yl)-3-fluorophenyl)amino)-1,2,4-triazine-6-carboxamide] | < 0.01
19 | NC(=O)c1nnc(N2CCCCC2)nc1Nc1ccc(C2CCN(CC3CCN(c4cc5c(cc4F)C(=O)N(C4CCC(=O)NC4=O)C5)C3)CC2)cc1 (stereo not drawn) [Compound 010, 5-((4-(1-((1-(2-(2,6-dioxopiperidin-3-yl)-6-fluoro-1-oxoisoindolin-5-yl)pyrrolidin-3-yl)methyl)piperidin-4-yl)phenyl)amino)-3-(piperidin-1-yl)-1,2,4-triazine-6-carboxamide] | < 0.01
20 | NC(=O)c1nnc(N2CCOCC2)nc1Nc1ccc(N2CCN(CC3CCN(c4ncc(-c5ccc(=O)[nH]n5)cc4C(F)(F)F)CC3)CC2)c(F)c1 [Compound 102, 5-((3-fluoro-4-(4-((1-(5-(6-oxo-1,6-dihydropyridazin-3-yl)-3-(trifluoromethyl)pyridin-2-yl)piperidin-4-yl)methyl)piperazin-1-yl)phenyl)amino)-3-morpholino-1,2,4-triazine-6-carboxamide] | < 0.01
21 | CC(C)[C@H](N)C(=O)OCN1C(=O)CCC(N2C(=O)c3ccc(N4CCC(CN5CCN(c6ccc(Nc7nc(N8CCCCC8)nnc7C(N)=O)cc6F)CC5)C4)cc3C2=O)C1=O (stereo partly drawn) [Compound 074, (3-(5-(3-((4-(4-((6-carbamoyl-3-(piperidin-1-yl)-1,2,4-triazin-5-yl)amino)-2-fluorophenyl)piperazin-1-yl)methyl)pyrrolidin-1-yl)-1,3-dioxoisoindolin-2-yl)-2,6-dioxopiperidin-1-yl) methyl L-valinate] | < 0.01
